Where two headings read alike, the source gives them in different places.
Legend:
pancreatic NET patients [1] = system: pancreatic NET patients; parameters: method as in PMID 21306237; settings: phase III trial; cited from earlier work
pancreatic NET patients [2] = system: pancreatic NET patients; parameters: method as in PMID 21306238; settings: phase III trial; cited from earlier work
GI and lung NET patients = system: GI and lung NET patients; parameters: method as in PMID 26703889; settings: phase III trial; cited from earlier work
advanced solid tumors = test: tumor response by RECIST Version 1.0; assay type: in vivo, human
Method: Patients with NETs were enrolled with priority as preliminary efficacy was shown in these tumor types in the dose-escalation stage. Tumor response (an exploratory endpoint) was assessed according to RECIST Version 1.0 and measured at baseline, at the end of every treatment cycle in the first four cycles, and every other cycle thereafter. […] Calculations of the following parameters were made: ORR (CR + PR); SD defined as ≥1 assessment of SD at least six weeks after study entry; DCR (CR + PR + SD). TTR, DoR and PFS were analyzed in the subgroup of patients with NET.

[3] = system: patients with advanced solid tumors; test: phase I safety and tolerability (AEs, DLTs, MTD); assay type: in vivo; settings: doses of 50-350 mg QD and 125-150 mg BID; up to 350 mg QD (formulation 2)
Text: The primary objectives of this open-label, first-in-human phase I study (NCT02133157) were to determine MTD and the phase II dose of sulfatinib, and to evaluate the safety of sulfatinib in patients with advanced solid tumors. The secondary and exploratory objectives included evaluation of sulfatinib PK and preliminary anti-tumor activity. The study consisted of a dose-escalation phase (split into a single-dose period and continuous-dose period) and a tumor-specific expansion phase. Two sulfatinib formulations were used during the study: formulation 1 (5, 25, and 50 mg capsules) and formulation 2 (50 and 200 mg capsules). […]
During the dose-escalation phase, patients were given a single dose of sulfatinib and monitored for AEs for seven days. […] DLTs were assessed at the end of the 28-day period. […]
The study used a modified Fibonacci 3+3 dose-escalation design with at least three evaluable patients treated with each dose. […] If two or more of the first three or overall six patients experienced a DLT, the MTD was considered exceeded and the previous lower dose would be re-assessed to determine the MTD. […]
Safety and tolerability were assessed in all patients who received at least one dose of sulfatinib throughout the study. AEs were recorded throughout the study. […]

CSF1R = CSF1R (Homo sapiens, UniProt P07333); test: kinase selectivity profile; assay type: biochemical
Sequence of CSF1R (P07333 20-972): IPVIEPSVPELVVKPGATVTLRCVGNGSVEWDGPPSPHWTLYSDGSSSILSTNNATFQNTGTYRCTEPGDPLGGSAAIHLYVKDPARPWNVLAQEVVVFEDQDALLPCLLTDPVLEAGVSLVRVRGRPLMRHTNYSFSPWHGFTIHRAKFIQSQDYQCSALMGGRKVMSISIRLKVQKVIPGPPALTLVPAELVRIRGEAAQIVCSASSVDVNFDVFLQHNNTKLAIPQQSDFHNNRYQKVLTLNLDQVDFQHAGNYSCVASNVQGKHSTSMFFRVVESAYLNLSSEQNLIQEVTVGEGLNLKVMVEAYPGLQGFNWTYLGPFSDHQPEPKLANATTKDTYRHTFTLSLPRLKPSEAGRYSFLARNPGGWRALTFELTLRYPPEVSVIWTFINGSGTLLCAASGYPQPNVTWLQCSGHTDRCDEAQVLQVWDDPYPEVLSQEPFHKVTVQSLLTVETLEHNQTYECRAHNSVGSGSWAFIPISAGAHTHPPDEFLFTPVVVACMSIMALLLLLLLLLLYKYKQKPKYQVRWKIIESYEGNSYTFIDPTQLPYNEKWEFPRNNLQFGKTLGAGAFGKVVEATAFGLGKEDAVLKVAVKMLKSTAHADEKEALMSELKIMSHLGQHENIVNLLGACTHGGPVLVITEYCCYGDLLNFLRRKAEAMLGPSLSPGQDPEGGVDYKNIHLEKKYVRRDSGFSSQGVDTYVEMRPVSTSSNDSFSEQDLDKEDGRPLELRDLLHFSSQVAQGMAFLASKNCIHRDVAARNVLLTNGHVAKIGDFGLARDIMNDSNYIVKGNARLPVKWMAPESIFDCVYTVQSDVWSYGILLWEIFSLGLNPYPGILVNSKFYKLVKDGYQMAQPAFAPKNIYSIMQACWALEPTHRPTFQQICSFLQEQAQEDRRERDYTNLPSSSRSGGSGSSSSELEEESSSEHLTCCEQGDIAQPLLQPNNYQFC
Text: (§1) Table 1 Sulfatinib kinase selectivity profile | column: IC50 (μM)

VEGFR 1 = VEGFR 1 (Homo sapiens, UniProt P17948); test: kinase selectivity profile; assay type: biochemical
Text: as §1

FGFR1 = FGFR1 (Homo sapiens, UniProt P11362); test: kinase selectivity profile; assay type: biochemical
Sequence of FGFR1 (P11362 22-822): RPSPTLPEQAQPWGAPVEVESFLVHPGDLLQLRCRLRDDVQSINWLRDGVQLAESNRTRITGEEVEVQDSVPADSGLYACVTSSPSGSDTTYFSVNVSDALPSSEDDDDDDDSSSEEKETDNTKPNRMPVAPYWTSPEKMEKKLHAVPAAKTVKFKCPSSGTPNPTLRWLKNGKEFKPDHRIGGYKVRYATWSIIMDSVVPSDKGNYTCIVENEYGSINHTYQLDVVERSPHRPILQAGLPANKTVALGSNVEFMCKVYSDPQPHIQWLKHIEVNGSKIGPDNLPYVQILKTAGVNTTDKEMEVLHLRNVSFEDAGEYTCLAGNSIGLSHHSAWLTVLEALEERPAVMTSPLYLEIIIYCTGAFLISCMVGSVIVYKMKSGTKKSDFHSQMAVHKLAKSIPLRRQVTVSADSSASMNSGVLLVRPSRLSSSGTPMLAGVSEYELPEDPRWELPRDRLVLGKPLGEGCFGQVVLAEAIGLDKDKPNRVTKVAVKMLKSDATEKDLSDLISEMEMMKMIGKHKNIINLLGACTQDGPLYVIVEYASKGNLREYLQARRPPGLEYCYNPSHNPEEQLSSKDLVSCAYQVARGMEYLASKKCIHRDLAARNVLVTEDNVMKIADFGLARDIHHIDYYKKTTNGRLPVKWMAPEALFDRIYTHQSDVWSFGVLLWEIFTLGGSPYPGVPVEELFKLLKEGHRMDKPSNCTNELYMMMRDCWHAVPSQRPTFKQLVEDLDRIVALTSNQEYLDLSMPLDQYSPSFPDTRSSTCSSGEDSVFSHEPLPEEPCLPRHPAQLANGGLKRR
Text: as §1

VEGFR 2 = VEGFR 2 (Homo sapiens, UniProt P35968); test: kinase selectivity profile; assay type: biochemical
Text: as §1

FLT3 = target: T1, FLT3 (Homo sapiens, UniProt P36888); test: kinase selectivity profile; assay type: biochemical
T1 sequence (P36888 27-993): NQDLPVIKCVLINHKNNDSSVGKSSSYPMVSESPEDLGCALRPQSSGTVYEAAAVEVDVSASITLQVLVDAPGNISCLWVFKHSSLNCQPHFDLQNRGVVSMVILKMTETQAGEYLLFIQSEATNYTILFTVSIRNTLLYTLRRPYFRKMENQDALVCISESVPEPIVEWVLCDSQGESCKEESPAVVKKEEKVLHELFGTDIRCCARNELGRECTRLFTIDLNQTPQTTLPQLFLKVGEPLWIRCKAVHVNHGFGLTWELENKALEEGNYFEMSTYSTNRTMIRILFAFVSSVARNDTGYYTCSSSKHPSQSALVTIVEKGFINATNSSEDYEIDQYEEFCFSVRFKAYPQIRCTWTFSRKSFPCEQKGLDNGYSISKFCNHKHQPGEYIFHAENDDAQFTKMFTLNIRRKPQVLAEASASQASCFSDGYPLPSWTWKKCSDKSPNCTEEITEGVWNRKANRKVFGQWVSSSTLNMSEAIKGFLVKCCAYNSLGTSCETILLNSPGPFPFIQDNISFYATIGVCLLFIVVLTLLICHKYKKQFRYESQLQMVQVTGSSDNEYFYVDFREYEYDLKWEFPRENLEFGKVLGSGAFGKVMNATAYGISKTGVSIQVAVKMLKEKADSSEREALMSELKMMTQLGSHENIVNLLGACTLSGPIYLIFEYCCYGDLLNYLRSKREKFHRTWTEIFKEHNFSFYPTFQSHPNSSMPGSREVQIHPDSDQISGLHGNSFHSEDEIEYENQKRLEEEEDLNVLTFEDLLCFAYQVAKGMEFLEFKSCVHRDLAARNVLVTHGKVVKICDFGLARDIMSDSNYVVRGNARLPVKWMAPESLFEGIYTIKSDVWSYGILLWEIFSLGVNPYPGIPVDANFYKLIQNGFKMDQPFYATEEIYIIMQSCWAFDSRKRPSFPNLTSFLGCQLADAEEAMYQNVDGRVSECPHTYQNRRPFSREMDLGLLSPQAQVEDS
Text: as §1

VEGFR 3 = VEGFR 3 (Homo sapiens, UniProt P35916); test: kinase selectivity profile; assay type: biochemical
Sequence of VEGFR 3 (P35916 25-1363): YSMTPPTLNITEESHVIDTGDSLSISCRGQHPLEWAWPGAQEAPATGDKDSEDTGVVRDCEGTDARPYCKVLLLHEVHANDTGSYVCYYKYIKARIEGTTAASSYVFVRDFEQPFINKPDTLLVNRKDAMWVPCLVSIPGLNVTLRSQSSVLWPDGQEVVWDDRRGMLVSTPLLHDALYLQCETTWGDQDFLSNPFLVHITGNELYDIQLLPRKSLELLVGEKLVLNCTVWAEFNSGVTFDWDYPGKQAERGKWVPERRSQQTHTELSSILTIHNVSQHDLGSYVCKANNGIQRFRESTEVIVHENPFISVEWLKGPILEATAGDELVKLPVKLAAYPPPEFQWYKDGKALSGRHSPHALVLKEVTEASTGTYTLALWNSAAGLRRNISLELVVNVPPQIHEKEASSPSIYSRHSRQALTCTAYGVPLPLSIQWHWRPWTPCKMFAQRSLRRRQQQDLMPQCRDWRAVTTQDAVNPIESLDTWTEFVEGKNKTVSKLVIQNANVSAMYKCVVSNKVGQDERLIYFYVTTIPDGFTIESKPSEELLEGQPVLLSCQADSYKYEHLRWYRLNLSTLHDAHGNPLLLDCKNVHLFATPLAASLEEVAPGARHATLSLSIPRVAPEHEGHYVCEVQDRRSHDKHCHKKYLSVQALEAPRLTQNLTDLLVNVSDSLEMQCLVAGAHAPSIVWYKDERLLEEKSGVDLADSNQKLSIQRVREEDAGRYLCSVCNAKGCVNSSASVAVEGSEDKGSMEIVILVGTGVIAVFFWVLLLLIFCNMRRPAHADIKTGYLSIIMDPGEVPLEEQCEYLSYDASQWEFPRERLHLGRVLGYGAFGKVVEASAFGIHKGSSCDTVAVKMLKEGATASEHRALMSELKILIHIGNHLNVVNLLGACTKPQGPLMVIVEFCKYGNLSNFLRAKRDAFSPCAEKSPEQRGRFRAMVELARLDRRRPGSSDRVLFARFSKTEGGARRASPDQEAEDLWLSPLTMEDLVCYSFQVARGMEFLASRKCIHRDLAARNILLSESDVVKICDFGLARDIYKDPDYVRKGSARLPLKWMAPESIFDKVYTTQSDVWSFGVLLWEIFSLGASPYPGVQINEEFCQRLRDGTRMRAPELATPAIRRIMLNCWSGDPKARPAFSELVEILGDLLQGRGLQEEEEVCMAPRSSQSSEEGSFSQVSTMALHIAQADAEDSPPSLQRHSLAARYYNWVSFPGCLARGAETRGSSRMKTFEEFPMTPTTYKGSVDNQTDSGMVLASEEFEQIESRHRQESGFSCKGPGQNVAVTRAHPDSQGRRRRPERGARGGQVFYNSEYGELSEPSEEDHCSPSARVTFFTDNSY
Text: as §1

TrkB = TrkB (Homo sapiens, UniProt Q16620); test: kinase selectivity profile; assay type: biochemical
Sequence of TrkB (Q16620 32-822): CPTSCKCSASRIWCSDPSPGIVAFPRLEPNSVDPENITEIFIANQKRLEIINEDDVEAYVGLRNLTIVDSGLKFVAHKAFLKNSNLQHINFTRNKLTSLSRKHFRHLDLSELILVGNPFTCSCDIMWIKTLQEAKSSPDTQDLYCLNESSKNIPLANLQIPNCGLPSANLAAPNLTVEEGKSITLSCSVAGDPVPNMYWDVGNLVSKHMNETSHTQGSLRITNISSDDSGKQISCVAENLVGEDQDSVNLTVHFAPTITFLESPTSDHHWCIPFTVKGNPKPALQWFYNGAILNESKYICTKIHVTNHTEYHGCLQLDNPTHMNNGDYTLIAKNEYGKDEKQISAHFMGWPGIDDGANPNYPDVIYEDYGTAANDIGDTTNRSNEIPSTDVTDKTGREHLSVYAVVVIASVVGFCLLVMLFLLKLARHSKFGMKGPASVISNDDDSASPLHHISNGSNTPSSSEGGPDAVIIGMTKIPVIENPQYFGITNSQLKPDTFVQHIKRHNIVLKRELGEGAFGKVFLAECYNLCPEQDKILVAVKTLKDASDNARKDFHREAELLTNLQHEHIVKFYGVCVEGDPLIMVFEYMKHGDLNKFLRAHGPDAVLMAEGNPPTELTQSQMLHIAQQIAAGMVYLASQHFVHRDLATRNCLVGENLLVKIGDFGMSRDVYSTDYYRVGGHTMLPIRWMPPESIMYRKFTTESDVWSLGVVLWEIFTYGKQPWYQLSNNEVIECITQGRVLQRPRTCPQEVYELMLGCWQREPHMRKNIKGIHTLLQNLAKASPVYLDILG
Text: as §1

278 other kinases = test: kinase selectivity profile (broad kinase screening); assay type: biochemical
Text: as §1

[4] = three NET patients who progressed on prior VEGFR kinase inhibitors

CCN(CC)CCNC(=O)c1c(C)[nH]c(/C=C2\C(=O)Nc3ccc(F)cc32)c1C [sunitinib]
ORR (pancreatic NET patients [1]): 9.3%
PFS (pancreatic NET patients [1]): 11.0 months

CO[C@H]1C[C@@H]2CC[C@@H](C)[C@@](O)(O2)C(=O)C(=O)N2CCCC[C@H]2C(=O)O[C@H]([C@H](C)C[C@@H]2CC[C@@H](OCCO)[C@H](OC)C2)CC(=O)[C@H](C)/C=C(\C)[C@@H](O)[C@@H](OC)C(=O)[C@H](C)C[C@H](C)/C=C/C=C/C=C/1C [everolimus]
ORR (pancreatic NET patients [2]): 5%
median PFS (pancreatic NET patients [2]): 11.0 months
ORR (GI and lung NET patients): 2%
median PFS (GI and lung NET patients): 11.0 months

Cc1cc2cc(Oc3ccnc(Nc4cccc(CS(=O)(=O)NCCN(C)C)c4)n3)ccc2[nH]1 [Sulfatinib]
patients with confirmed PR (advanced solid tumors; all 77 patients): Nine
patients with sustainable SD (advanced solid tumors; all 77 patients): 23
objective response rate (ORR) (advanced solid tumors; all 77 patients (9/77)): 11.7%
disease control rate (DCR) (advanced solid tumors; all 77 patients (32/77)): 41.6%
patients achieving PR (advanced solid tumors; [4]): one
patients achieving SD (advanced solid tumors; [4]): two
maximum tolerated dose (MTD) [3]: not reached
IC50 (CSF1R): 4 nM
IC50 (VEGFR 1): 2 nM
IC50 (FGFR1): 15 nM
IC50 (VEGFR 2): 24 nM
IC50 (FLT3): 67 nM
IC50 (VEGFR 3): 1 nM
IC50 (TrkB): 41 nM
IC50 (278 other kinases): > 150 nM

Source: paper PMC5522050, “Sulfatinib, a novel kinase inhibitor, in patients with advanced solid tumors: results from a phase I study” (Oncotarget, 2017)
